In general, IC50 refers to the concentration that gives 50% inhibition.

Our source for the IC50 values is patent publication US10927110B2, “Cyano-subtituted heterocycles with activity as inhibitors of USP30” (MISSION THERAPEUTICS LIMITED, priority 2016, dated 2021).

This test deals with USP30 (Homo sapiens (Human), UniProt Q70CQ3). As to the kind of experiment: USP30 Biochemical IC50 Assay. Particulars: fluorescence polarisation, TAMRA labelled peptide linked to ubiquitin; 30 min pre-incubation, read after 2 h at room temperature; read-out: IC50 range. As to the method:
USP30 Biochemical IC50 Assay
Dilution plates were prepared at 21 times the final concentration (2100 μM for a final concentration of 100 μM) in 50% DMSO in a 96-well polypropylene V-bottom plate (Greiner #651201). A typical 8-point dilution series would be 100, 30, 10, 3, 1, 0.3, 0.1, […]. Reactions were performed in duplicate in black 384 well plates (small volume, Greiner 784076) in a final reaction volume of 21 μl. Either 1 μl of 50% DMSO or diluted compound was added to the plate. USP30 was diluted in reaction buffer (40 mM Tris, pH 7.5, 0.005% Tween 20, 0.5 mg/ml BSA, 5 mM beta-mercaptoethanol) to the equivalent of 0.05 μl/well and 10 μl of diluted USP30 was added to the compound. Enzyme and compound were incubated for 30 min at room temp. Reactions were initiated by the addition of 50 nM of TAMRA labelled peptide linked to ubiquitin via an iso-peptide bond as fluorescence polarisation substrate. Reactions were read immediately after addition of substrate and following a 2 h incubation at room temperature. Readings were performed on a Pherastar Plus (BMG Labtech). λ Excitation 540 nm; λ Emission 590 nm.
On the technique in general: Polarisation of emitted light reports the rotation of a fluorescent probe.

Sequence of USP30 (Q70CQ3 57-517): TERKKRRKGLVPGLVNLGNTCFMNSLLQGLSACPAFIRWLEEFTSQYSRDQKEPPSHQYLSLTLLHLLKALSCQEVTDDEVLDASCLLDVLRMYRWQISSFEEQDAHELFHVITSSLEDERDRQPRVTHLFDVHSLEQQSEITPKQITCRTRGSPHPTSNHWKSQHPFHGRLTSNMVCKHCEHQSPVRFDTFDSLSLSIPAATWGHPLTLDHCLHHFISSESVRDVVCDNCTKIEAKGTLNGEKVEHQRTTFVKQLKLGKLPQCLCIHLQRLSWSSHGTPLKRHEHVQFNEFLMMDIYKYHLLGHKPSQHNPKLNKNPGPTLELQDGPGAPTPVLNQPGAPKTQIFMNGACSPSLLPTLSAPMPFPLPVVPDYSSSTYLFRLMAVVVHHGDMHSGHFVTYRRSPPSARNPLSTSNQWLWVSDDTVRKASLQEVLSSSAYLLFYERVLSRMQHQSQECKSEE

As for `N#Cc1cc(-c2ccnc(-c3nnc([C@@]4(F)CCCN(C#N)C4)o3)c2)ccn1` [Example 13, (R)-2′-(5-(1-cyano-3-fluoropiperidin-3-yl)-1,3,4-oxadiazol-2-yl)-[4,4′-bipyridine]-2-carbonitrile], the IC50 lay in the range of 1000 to 10000 nM.
Take `N#CN1CCC[C@](F)(c2nnc(-c3cccc(-c4ccccc4)c3)o2)C1` [Example 9, (R)-3-(5-([1,1′-biphenyl]-3-yl)-1,3,4-oxadiazol-2-yl)-3-fluoropiperidine-1-carbonitrile]: the IC50 lay within 10 to 100 nM.
On to `N#Cc1ccnc(-c2ccc3oc([C@@]4(F)CCCN(C#N)C4)nc3c2)n1` [Example 24, (R)-2-(2-(1-cyano-3-fluoropiperidin-3-yl)benzo[d]oxazol-5-yl)pyrimidine-4-carbonitrile], for which the half-maximal inhibitory concentration (IC50) was in the range of 100 to 1000 nM.
As to `N#Cc1cc(-c2ccc3nc([C@@]4(F)CCCN(C#N)C4)[nH]c3n2)ccn1` [Example 19, (R)-4-(2-(1-cyano-3-fluoropiperidin-3-yl)-1H-imidazo[4,5-b]pyridin-5-yl)picolinonitrile], the IC50 fell in the range of 100 to 1000 nM.
`N#CN1CCCC(F)(c2nnc(-c3ccc(-c4ccccc4)cc3)o2)C1` (centres unmarked) [Example 10, 3-(5-([1,1′-biphenyl]-4-yl)-1,3,4-oxadiazol-2-yl)-3-fluoropiperidine-1-carbonitrile]: the IC50 fell in the range of 100 to 1000 nM.
Regarding `N#Cc1cc(-c2ccc3oc([C@@]4(F)CCCN(C#N)C4)nc3c2)ncn1` [Example 23, (R)-6-(2-(1-cyano-3-fluoropiperidin-3-yl)benzo[d]oxazol-5-yl)pyrimidine-4-carbonitrile], the IC50 lay within 100 to 1000 nM.
As for `N#Cc1cc(-c2cnc3oc([C@@]4(F)CCCN(C#N)C4)nc3c2)ccn1` [Example 30, (R)-4-(2-(1-cyano-3-fluoropiperidin-3-yl)oxazolo[5,4-b]pyridin-6-yl)picolinonitrile], the IC50 was 100 to 1000 nM.
Then `N#CN1CCC[C@](F)(c2nc3ccc(-c4ccccc4)nc3[nH]2)C1` [Example 15, (R)-3-fluoro-3-(5-phenyl-3H-imidazo[4,5-b]pyridin-2-yl)piperidine-1-carbonitrile], with 100 to 1000 nM; and `N#Cc1cc(-c2cnc3nc([C@@]4(F)CCCN(C#N)C4)[nH]c3c2)ccn1` [Example 18, (R)-4-(2-(1-cyano-3-fluoropiperidin-3-yl)-3H-imidazo[4,5-b]pyridin-6-yl)picolinonitrile], with 100 to 1000 nM; and `N#CN1CCCC(F)(c2nc3ccc(-c4ccn[nH]4)nc3[nH]2)C1` (racemic) [Example 17, 3-(5-(1H-pyrazol-5-yl)-3H-imidazo[4,5-b]pyridin-2-yl)-3-fluoropiperidine-1-carbonitrile], with 1000 to 10000 nM.
In the case of `N#Cc1cccc(-c2ccc3oc([C@@]4(F)CCCN(C#N)C4)nc3c2)c1` [Example 22, (R)-3-(5-(3-cyanophenyl)benzo[d]oxazol-2-yl)-3-fluoropiperidine-1-carbonitrile], the IC50 lay in the range of 10 to 100 nM.
Then `N#Cc1cccc(-c2ccc3nc(C4(F)CCCN(C#N)C4)[nH]c3n2)c1` (stereo in doubt) [Example 16, (S)-3-(5-(3-cyanophenyl)-3H-imidazo[4,5-b]pyridin-2-yl)-3-fluoropiperidine-1-carbonitrile], with 10 to 100 nM.
In the case of `N#Cc1cc(-c2ccn3cc([C@@]4(F)CCCN(C#N)C4)nc3c2)ccn1` [Example 31, (R)-4-(2-(1-cyano-3-fluoropiperidin-3-yl)imidazo[1,2-a]pyridin-7-yl)picolinonitrile], the IC50 lay within 100 to 1000 nM.
The result for `N#Cc1cc(-c2cc(-c3nnc([C@@]4(F)CCCN(C#N)C4)o3)ccn2)ccn1` [Example 11, (R)-4-(5-(1-cyano-3-fluoropiperidin-3-yl)-1,3,4-oxadiazol-2-yl)-[2,4′-bipyridine]-2′-carbonitrile] reads 100 to 1000 nM.
Regarding `N#CN1CCOC(c2nc(-c3cccc(-c4ccccc4)c3)n[nH]2)C1` (centres unmarked) [Example 6, 2-(3-([1,1′-Biphenyl]-3-yl)-H-1,2,4-triazol-5-yl)morpholine-4-carbonitrile], the IC50 was 1000 to 10000 nM.
As to `N#Cc1cccc(-c2ccc3nc([C@@]4(F)CCCN(C#N)C4)[nH]c3n2)n1` [Example 21, (R)-6-(2-(1-cyano-3-fluoropiperidin-3-yl)-3H-imidazo[4,5-b]pyridin-5-yl)picolinonitrile], the IC50 is 1000 to 10000 nM.
With `N#Cc1ccnc(-c2ccc3oc([C@@]4(F)CCCN(C#N)C4)nc3c2)c1` [Example 26, (R)-2-(2-(1-cyano-3-fluoropiperidin-3-yl)benzo[d]oxazol-5-yl)isonicotinonitrile], the IC50 is 100 to 1000 nM.
Take `N#Cc1cc(-c2ccc3nc([C@@]4(F)CCCN(C#N)C4)oc3c2)ccn1` [Example 27, (R)-4-(2-(1-cyano-3-fluoropiperidin-3-yl)benzo[d]oxazol-6-yl)picolinonitrile]: the IC50 lay within 100 to 1000 nM.
With `N#Cc1cccc(-c2cnc3nc(C4(F)CCCN(C#N)C4)oc3c2)c1` (centres unmarked) [Example 29, 3-(6-(3-cyanophenyl)oxazolo[4,5-b]pyridin-2-yl)-3-fluoropiperidine-1-carbonitrile], the IC50 was 100 to 1000 nM.
With `N#CN1CCCC(F)(c2nc3ccc(-c4ccn[nH]4)cc3[nH]2)C1` (centres unmarked) [Example 14, 3-(6-(H-pyrazol-5-yl)-1H-benzo[d]imidazol-2-yl)-3-fluoropiperidine-1-carbonitrile], the IC50 lay in the range of 1000 to 10000 nM.
Take `N#Cc1cc(-c2ccc3oc([C@@]4(F)CCCN(C#N)C4)nc3c2)ccn1` [Example 25, (R)-4-(2-(1-cyano-3-fluoropiperidin-3-yl)benzo[d]oxazol-5-yl)picolinonitrile]: the IC50 was 10 to 100 nM.
In the case of `N#Cc1cc(-c2nnc([C@@]3(F)CCCN(C#N)C3)o2)ccn1` [Example 12, (R)-4-(5-(1-cyano-3-fluoropiperidin-3-yl)-1,3,4-oxadiazol-2-yl)picolinonitrile], the IC50 was 1000 to 10000 nM.
Turning to `N#Cc1cccc(-c2cnc3oc([C@@]4(F)CCCN(C#N)C4)nc3c2)c1` (stereo in doubt) [Example 28, 3-(6-(3-cyanophenyl)oxazolo[5,4-b]pyridin-2-yl)-3-fluoropiperidine-1-carbonitrile], the IC50 lay in the range of 100 to 1000 nM.
